The numbers were not newly measured in patent publication US20160286792A1, “METHOD AND SYSTEM FOR PEST CONTROL” (priority 2013, published 2016), which cites them from elsewhere.

For data set [1] the following is noted: aqueous, at 25 degrees.

Like-named read-outs stand apart in the source and are kept apart here.

Regarding `Cc1c(COC(=O)[C@@H]2[C@H](/C=C(\Cl)C(F)(F)F)C2(C)C)cccc1-c1ccccc1` (racemic) [Bifenthrin], the length of protection is on record as 10 years with termites (applied at 0.05% concentration), “at least 10 years” in the data set on termites (applied at 0.1% concentration) and 3 years in the data set with termites (applied at 0.25% concentration).

Consider `O=[N+]([O-])NC1=NCCN1Cc1ccc(Cl)nc1` [Imidacloprid], for which the length of protection entry in the data set on termites (applied at 0.25% concentration) is “up to 3 years”. The toxicity to humans entry in the data set on humans is recorded as “low to medium toxicity”. Consider `CCOP(=S)(OCC)Oc1nc(Cl)c(Cl)cc1Cl` [chlorpyrifos, Chlorpyrifos], for which the length of protection entry in the data set on termites (concentration varies depending on the brand) was “up to 5 years”. For calcium sulphate dihydrate [gypsum], the “concentration of saturated solution” value in data set [1] is 2000 to 2500 µg/mL.
